Measured values reported in patent US7601716B2, “Pyridopyrazines and derivatives thereof as ALK and c-Met inhibitors” (Cephalon, Inc., priority 2006, dated 2009).

How the values were obtained:
[1] = target: baculovirus-expressed ALK (Homo sapiens, UniProt Q9UM73); experiment: ALK Kinase Assay (ELISA/TRF, PLC-γ substrate); assay type: biochemical; conditions: read-out: ALK Kinase Inhibition (IC50); note: 1 µM ATP (Km level)
Summary of the method: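 Plates coated with GST–PLC-γ fusion substrate (10 μg/mL in TBS); reaction started with 30 ng/ml ALK, run 15 minutes at 37° C. Phosphotyrosine detected by Eu-N1 PT66 antibody (1 hour, 37° C) and time-resolved fluorescence after enhancement. IC50 from sigmoidal variable-slope fit of percent inhibition versus log concentration.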

NPM-ALK = target: T1, NPM-ALK (Homo sapiens, UniProt Q9UM73); experiment: ALK Cellular Assay (phospho-NPM-ALK immunoblot / ALK tyrosine phosphorylation ELISA); assay type: cell-based
T1 construct: a fusion protein consisting of nucleophosmin (NMP) and the intracellular domain of ALK; the other entry of the earlier key: NPM1 (P06748, Nucleophosmin)
T1 sequence (Q9UM73 with tags, fused parts or gaps): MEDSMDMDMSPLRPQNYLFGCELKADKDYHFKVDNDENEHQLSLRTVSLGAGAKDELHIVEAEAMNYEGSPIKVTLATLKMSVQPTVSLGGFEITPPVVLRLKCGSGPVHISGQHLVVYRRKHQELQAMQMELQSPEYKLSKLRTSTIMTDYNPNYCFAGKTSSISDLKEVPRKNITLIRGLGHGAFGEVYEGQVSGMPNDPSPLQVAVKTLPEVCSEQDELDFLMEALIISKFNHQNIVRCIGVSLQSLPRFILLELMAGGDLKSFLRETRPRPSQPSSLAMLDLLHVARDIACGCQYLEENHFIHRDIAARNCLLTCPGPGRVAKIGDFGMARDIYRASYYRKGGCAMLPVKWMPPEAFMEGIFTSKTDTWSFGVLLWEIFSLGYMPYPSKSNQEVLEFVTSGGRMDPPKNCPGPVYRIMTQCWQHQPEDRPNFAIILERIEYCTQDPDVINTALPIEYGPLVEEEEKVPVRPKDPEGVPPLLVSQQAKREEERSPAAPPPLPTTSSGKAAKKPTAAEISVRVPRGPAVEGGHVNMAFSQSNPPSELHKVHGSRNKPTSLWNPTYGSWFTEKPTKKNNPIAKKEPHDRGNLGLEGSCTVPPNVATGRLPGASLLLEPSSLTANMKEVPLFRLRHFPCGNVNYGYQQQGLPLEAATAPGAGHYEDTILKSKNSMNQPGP
Description: Immunoblotting of phospho-NPM-ALK and total NPM-ALK from cell lysates was carried out according to the protocols provided by the antibody suppliers. In brief, after treatment of Example compounds, cells were lysed in Frak lysis buffer [10 mM Tris, pH 7.5, 1% Triton X-100, 50 mM sodium chloride, 20 mM sodium fluoride, 2 mM sodium pyrophosphate, 0.1% BSA, plus freshly prepared 1 mM activated sodium vanadate, 1 mM dithiothreitol (#165680050, ARCOS Organics, Geel, Belgium), and 1 mM PMSF (#837091, Boehringer Mannheim Biochemicals, Indianapolis, Ind.), protease inhibitors cocktail III (#539134-1Set, Calbiochem, 1:100 dilution)]. After brief sonication, the lysates were cleared by centrifugation, mixed with sample buffer and subjected to SDS-PAGE. Following transfer to membranes, the membranes were blotted with either rabbit phospho-NPM-ALK(Y664) (Cat^#3341) or ALK antibody (Cat^#3342) from Cell Signaling Technology (Beverly, Mass.), and then the HRP-conjugated goat anti-rabbit antibodies (Santa Cruz, Calif.) after washed in TBS/0.2% Tween-20. The protein bands were visualized with ECL Western Blotting detection reagents (RPN2106, Amersham Biosciences, Buckinghamshire, UK) and quantitated with gel-pro analyzer 3.1 software.
To measure ALK tyrosine phosphorylation in cells with an ELISA assay, fluoronunc plates (Cat^#437796, Nalge Nunc, Rochester, N.Y.) were pre-coated with goat anti-mouse IgG, and incubated with the capture mouse ALK antibody (Cat^#35-4300, Zymed, Seattle, Wash.) diluted 1:1000 in Superblock (Pierce, Rockford, Ill.). Following blocking, cell lysates were added to plates and incubated overnight at 4° C. Plates were incubated with the detecting antibody, anti-phospho-ALK (Y664) (Cell Signaling Technology), diluted at 1:2000, followed by incubation with goat anti-rabbit-IgG alkaline phosphatase to amplify the detection. Wells were exposed to the fluorogenic substrate 4-MeUP (#3368-04-5, Calbiochem) and the signal quantified using a CytoFluor® (series 4000) Fluorescence Multi-Well Plate Reader (Applied Biosystems, Foster City, Calif.).

[2] = target: T2, c-Met (cytoplasmic domain) (Homo sapiens, UniProt P08581); experiment: c-Met Kinase Assay (ELISA/TRF, PLC-γ substrate); assay type: biochemical; conditions: 3 μM ATP (Km level); read-out: c-Met Kinase Inhibition (IC50)
T2 construct: Reactions were initiated with 30 ng/mL c-Met (cytoplasmic domain, Invitrogen Corporation #PV3143); purchased Invitrogen Corporation PV3143
T2 sequence (P08581 956-1390 limits assumed): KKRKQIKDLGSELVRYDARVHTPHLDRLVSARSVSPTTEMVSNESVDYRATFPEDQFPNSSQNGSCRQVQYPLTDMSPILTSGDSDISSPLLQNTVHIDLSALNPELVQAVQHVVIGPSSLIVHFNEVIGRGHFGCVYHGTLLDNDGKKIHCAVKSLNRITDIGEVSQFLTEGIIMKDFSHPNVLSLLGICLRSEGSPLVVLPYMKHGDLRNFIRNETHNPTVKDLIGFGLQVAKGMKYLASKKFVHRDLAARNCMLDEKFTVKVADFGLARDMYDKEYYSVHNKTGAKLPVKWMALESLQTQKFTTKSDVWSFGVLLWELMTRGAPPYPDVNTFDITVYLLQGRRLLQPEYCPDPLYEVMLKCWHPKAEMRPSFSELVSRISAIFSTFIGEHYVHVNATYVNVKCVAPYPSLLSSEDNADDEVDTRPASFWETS
Summary of the method: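 c-Met cytoplasmic domain (30 ng/mL) phosphorylates plate-coated GST–PLC-γ for 15 min at 37 °C. Phosphotyrosine detected with Eu-labeled PT66 antibody by time-resolved fluorescence. IC50 from variable-slope sigmoidal fit of % inhibition vs log concentration.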

[3] = target: T3, c-Met (phospho-c-Met) in A549 cells (Homo sapiens, UniProt P08581); experiment: c-Met Cellular Activity/Autophosphorylation Assay, A549 cells (HGF stimulated); assay type: cell-based; conditions: 50 ng/mL HGF; for inhibition at 1 µM: 1 μM compound, read-out: c-Met autophosphorylation inhibition score, A549 Cells (1 μM); for inhibition at 3 µM: 3 μM compound, read-out: c-Met autophosphorylation inhibition score, A549 Cells (3 μM)
T3 construct: endogenous in cells; host or cells: HT29, A549 (HGF-stimulated), GTL-16
T3 sequence (P08581 25-1390): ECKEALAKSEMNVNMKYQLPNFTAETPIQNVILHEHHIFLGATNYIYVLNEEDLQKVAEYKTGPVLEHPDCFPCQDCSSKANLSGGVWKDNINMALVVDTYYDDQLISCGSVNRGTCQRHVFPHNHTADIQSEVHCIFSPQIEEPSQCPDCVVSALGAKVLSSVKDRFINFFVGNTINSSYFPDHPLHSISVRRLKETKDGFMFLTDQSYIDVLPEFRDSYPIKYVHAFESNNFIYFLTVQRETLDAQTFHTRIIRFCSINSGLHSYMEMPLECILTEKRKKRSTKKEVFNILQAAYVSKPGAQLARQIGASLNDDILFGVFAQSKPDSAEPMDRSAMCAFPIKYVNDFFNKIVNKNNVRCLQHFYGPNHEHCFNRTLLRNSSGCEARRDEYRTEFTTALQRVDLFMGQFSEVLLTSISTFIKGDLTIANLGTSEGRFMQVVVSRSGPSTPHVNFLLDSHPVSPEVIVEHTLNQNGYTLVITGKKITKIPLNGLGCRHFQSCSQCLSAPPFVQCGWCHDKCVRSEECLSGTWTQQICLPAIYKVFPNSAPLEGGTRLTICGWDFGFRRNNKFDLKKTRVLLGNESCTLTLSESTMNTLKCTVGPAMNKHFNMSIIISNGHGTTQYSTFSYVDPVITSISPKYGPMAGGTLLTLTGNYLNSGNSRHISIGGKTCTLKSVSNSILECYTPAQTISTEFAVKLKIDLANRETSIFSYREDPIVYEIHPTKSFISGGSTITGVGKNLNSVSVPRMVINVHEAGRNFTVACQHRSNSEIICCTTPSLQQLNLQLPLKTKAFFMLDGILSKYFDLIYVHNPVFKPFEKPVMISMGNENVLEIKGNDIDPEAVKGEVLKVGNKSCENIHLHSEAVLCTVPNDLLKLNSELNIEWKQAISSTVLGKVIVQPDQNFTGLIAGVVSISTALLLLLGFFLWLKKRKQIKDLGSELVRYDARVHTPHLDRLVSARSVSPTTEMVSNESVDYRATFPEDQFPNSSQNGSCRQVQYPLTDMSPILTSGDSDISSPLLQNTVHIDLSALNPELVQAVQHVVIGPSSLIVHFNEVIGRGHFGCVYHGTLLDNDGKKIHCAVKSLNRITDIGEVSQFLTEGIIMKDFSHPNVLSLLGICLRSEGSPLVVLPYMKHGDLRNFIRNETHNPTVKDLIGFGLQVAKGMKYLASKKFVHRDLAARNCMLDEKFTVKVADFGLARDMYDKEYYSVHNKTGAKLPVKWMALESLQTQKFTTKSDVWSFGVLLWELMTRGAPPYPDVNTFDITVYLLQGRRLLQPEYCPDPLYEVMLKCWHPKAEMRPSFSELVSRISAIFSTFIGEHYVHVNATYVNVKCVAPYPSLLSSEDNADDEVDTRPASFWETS
Description: (§1) HT29 and GTL-16 cells were serum starved for one hour in media containing 0.05% BSA and varying concentrations of Example compounds (1-10 μM). A549 cells were serum starved overnight in media containing 0.05% BSA then treated for one hour with Example compounds followed by a 15 minute stimulation with 50 ng/mL HGF (Peprotech, Rocky Hill, N.J.), respectively. Samples were resolved by electrophoresis on a 3-8% Tris-Acetate gel (40 ma/gel) and then transferred to a nitrocellulose membrane. Membranes were blocked for one hour at room temperature in Odyssey Blocking Buffer (Licor #927-40000) diluted 1:1 with 1×TBS. Membranes were then co-incubated overnight at 4° C. with primary antibodies [total Met (Cell Signaling, #3127) and Phospho-Met (Biosource, #44-888G) 1:1000 each in Odyssey Blocking Buffer diluted 1:1 with 1×TBS-T 0.05%]. The next day, membranes were washed and co-incubated with secondary antibodies [Goat anti mouse IRDye800 (Rockland, #610-132-121) and Goat anti rabbit Alexa fluor 700 (Molecular Probes, #A21038) 1:10,000] in Odyssey Blocking Buffer diluted 1:1 with 1×TBS-T 0.05% for one hour at room temperature protected from light. Blots were then washed and read on the Odyssey Infrared Imager. Total c-Met signal was visualized at 800 nm detection and phospho-c-Met signal was visualized at 700 nm detection.

[4] = target: T4, c-Met (phospho-c-Met) in HT29 cells (Homo sapiens, UniProt P08581); experiment: c-Met Cellular Activity/Autophosphorylation Assay, HT29 cells; assay type: cell-based; conditions: for inhibition at 1 µM: HT-29, 1 μM compound, read-out: c-Met autophosphorylation inhibition score, HT29 Cells (1 μM); for inhibition at 3 µM: HT-29, 3 μM compound, read-out: c-Met autophosphorylation inhibition score, HT29 Cells (3 μM)
T4 construct: endogenous in cells; host or cells: HT29, A549 (HGF-stimulated), GTL-16
Description: as §1

[5] = target: T5, c-Met (phospho-c-Met) in GTL-16 cells (Homo sapiens, UniProt P08581); experiment: c-Met Cellular Activity/Autophosphorylation Assay, GTL-16 cells; assay type: cell-based
T5 construct: endogenous in cells; host or cells: HT29, A549 (HGF-stimulated), GTL-16
Description: as §1

Sequence of baculovirus-expressed ALK (Q9UM73 19-1620): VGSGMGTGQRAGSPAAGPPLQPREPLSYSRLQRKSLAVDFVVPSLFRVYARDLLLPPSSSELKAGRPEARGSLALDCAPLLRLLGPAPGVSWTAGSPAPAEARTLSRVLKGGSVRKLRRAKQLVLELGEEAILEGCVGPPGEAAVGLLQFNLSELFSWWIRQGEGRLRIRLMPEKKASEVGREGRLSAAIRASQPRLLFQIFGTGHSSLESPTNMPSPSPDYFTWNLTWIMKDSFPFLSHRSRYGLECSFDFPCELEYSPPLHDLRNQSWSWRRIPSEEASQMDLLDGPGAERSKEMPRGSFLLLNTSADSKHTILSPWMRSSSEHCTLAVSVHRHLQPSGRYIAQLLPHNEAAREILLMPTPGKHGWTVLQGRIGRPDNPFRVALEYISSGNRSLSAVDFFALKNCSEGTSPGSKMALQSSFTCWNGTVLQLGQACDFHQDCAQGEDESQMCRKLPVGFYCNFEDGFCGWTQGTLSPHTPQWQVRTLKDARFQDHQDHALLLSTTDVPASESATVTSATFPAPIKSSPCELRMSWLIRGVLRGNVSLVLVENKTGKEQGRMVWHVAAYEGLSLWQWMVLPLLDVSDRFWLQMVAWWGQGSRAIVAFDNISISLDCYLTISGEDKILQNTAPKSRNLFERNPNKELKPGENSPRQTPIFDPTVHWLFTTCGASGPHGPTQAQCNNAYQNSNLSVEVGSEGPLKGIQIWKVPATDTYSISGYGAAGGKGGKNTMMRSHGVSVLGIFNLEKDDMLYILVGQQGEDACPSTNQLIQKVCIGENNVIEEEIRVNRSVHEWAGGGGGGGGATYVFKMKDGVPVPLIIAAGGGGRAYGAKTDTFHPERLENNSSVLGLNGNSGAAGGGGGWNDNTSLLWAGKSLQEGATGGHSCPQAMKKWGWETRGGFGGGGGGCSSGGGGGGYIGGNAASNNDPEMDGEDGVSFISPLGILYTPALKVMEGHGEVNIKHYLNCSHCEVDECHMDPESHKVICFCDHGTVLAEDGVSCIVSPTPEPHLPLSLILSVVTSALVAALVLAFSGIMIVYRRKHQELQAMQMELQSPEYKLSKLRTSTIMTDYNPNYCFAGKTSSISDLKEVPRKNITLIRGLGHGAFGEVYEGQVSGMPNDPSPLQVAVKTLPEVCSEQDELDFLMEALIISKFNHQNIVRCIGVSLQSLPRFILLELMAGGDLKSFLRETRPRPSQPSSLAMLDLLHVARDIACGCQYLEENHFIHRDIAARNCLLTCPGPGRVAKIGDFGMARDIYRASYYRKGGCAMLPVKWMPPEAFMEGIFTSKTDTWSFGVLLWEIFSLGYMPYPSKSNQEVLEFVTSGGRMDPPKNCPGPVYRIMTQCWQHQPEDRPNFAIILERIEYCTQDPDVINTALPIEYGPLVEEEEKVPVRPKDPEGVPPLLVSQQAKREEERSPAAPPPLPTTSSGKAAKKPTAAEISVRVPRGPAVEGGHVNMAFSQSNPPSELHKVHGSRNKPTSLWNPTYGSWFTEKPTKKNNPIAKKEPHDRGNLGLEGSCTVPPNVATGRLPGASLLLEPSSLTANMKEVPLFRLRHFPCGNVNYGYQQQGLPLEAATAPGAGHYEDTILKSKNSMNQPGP

Compound | IC50 [1] | IC50 (NPM-ALK) | IC50 [2] | inhibition at 1 µM [3] | inhibition at 3 µM [3] | melting point | inhibition at 1 µM [4] | inhibition at 3 µM [4] | inhibition at 1 µM ([5]; 1 μM compound, read-out: c-Met autophosphorylation inhibition score, GTL-16 Cells (1 μM)) | inhibition at 3 µM ([5]; 3 μM compound, read-out: c-Met autophosphorylation inhibition score, GTL-16 Cells (3 μM))
O=C(c1ccc(-c2cnc3c(c2)N(Cc2c(F)ccc(F)c2Cl)CCN3)cc1)N1CCC(N2CCCC2)CC1 [Example 99, {4-[1-(2-Chloro-3,6-difluorobenzyl)-1,2,3,4-tetrahydropyrido[2,3-b]pyrazin-7-yl]phenyl}-(4-(pyrrolidin-1-yl)piperidin-1-yl)methanone] | < 100 nM | ≤ 250 nM | 100 to 1000 nM | 0 to 25% | 0 to 25% | 93 to 95 °C | 0 to 25% | 0 to 25% |  | 
CN1CCN(c2ccc(-c3cnc4c(c3)N(Cc3cc(F)ccc3F)CCN4)cn2)CC1 [Example 69, 1-(2,5-Difluorobenzyl)-7-[6-(4-methylpiperazin-1-yl)pyridin-3-yl]-1,2,3,4-tetrahydropyrido[2,3-b]pyrazine] | < 100 nM | 751 to 1000 nM | 1000 to 10000 nM | 0 to 25% | 0 to 25% | 192 to 193 °C | 0 to 25% | 0 to 25% |  | 
O=C(c1ccc(-c2cnc3c(c2)N(Cc2cc(Cl)ccc2Cl)CCN3)cc1)N1CCC[C@H]1CN1CCCC1 [Example 159, S-{4-[1-(2,5-Dichlorobenzyl)-1,2,3,4-tetrahydropyrido[2,3-b]pyrazin-7-yl]phenyl}-{2-[(pyrrolidin-1-yl)methyl]pyrrolidin-1-yl}methanone] | < 100 nM | 251 to 500 nM | 1000 to 10000 nM | 0 to 25% | 0 to 25% |  | 0 to 25% | 0 to 25% |  | 
O=C(c1ccc(-c2cnc3c(c2)N(Cc2cc(Cl)ccc2C(F)(F)F)CCN3)cc1)N1CCC(N2CCCC2)CC1 [Example 117, {4-[1-(5-Chloro-2-trifluoromethylbenzyl)-1,2,3,4-tetrahydropyrido[2,3-b]pyrazin-7-yl]phenyl}-(4-(pyrrolidin-1-yl)piperidin-1-yl)methanone] | < 100 nM | ≤ 250 nM | 1000 to 10000 nM |  |  |  | 0 to 25% | 0 to 25% |  | 
O=C(c1ccc(-c2cnc3c(c2)N(Cc2c(F)ccc(F)c2Cl)CCN3)cc1)N1CCC[C@H]1CN1CCCC1 [Example 100, {4-[1-(2-Chloro-3,6-difluorobenzyl)-1,2,3,4-tetrahydropyrido[2,3-b]pyrazin-7-yl]phenyl}-((S)-2-((pyrrolidin-1-yl)methyl)pyrrolidin-1-yl)methanone] | < 100 nM | ≤ 250 nM | 100 to 1000 nM | 0 to 25% | 0 to 25% |  | 0 to 25% | 0 to 25% |  | 
O=C(c1ccc(-c2cnc3c(c2)N(Cc2cc(Cl)ccc2Cl)CCN3)cc1)N1CCC(N2CCCC2)CC1 [Example 160, {4-[1-(2,5-Dichlorobenzyl)-1,2,3,4-tetrahydropyrido[2,3-b]pyrazin-7-yl]phenyl}-(4-(pyrrolidin-1-yl)piperidin-1-yl)methanone] | < 100 nM | ≤ 250 nM | 100 to 1000 nM | 0 to 25% | 0 to 25% |  | 26 to 50% | 26 to 50% |  | 
O=C1CNc2ncc(-c3ccc(C(=O)N4CCC[C@H]4CN4CCCC4)cc3)cc2N1Cc1cc(Cl)ccc1Cl [Example 157, S-1-(2,5-Dichlorobenzyl)-7-[4-(2-[(pyrrolidin-1-yl)methyl]pyrrolidine-1-carbonyl)phenyl]-3,4-dihydro-1H-pyrido[2,3-b]pyrazin-2-one] | < 100 nM | 251 to 500 nM | 100 to 1000 nM | 0 to 25% | 0 to 25% | 180 °C | 0 to 25% | 26 to 50% |  | 

The remaining lines, values ahead:

IC50 [1] | IC50 (NPM-ALK) | IC50 [2] | inhibition at 1 µM [3] | inhibition at 3 µM [3] | melting point | inhibition at 1 µM [4] | inhibition at 3 µM [4] | inhibition at 1 µM ([5]; 1 μM compound, read-out: c-Met autophosphorylation inhibition score, GTL-16 Cells (1 μM)) | inhibition at 3 µM ([5]; 3 μM compound, read-out: c-Met autophosphorylation inhibition score, GTL-16 Cells (3 μM)) | Compound
< 100 nM | 501 to 750 nM | 100 to 1000 nM | 0 to 25% | 0 to 25% |  |  |  |  |  | CN1CCN(c2cc(-c3cnc4c(c3)N(Cc3c(F)ccc(F)c3Cl)CCN4)ccn2)CC1 [Example 190, 1-(2-Chloro-3,6-difluorobenzyl)-7-[2-(4-methylpiperazin-1-yl)pyridin-4-yl]-1,2,3,4-tetrahydropyrido[2,3-b]pyrazine]
< 100 nM | 251 to 500 nM | 1000 to 10000 nM | 0 to 25% | 0 to 25% |  | 0 to 25% | 0 to 25% |  |  | O=C(c1ccc(-c2cnc3c(c2)N(Cc2c(Cl)cccc2Cl)CCN3)cc1)N1CCC[C@H]1CN1CCCC1 [Example 164, {4-[1-(2,6-Dichlorobenzyl)-1,2,3,4-tetrahydropyrido[2,3-b]pyrazin-7-yl]phenyl}-{2-[(pyrrolidin-1-yl)methyl]pyrrolidin-1-yl}methanone]
< 100 nM | 751 to 1000 nM | 100 to 1000 nM | 0 to 25% | 0 to 25% |  | 0 to 25% | 26 to 50% |  |  | O=C(c1ccc(-c2cnc3c(c2)N(Cc2c(Cl)cccc2Cl)CCN3)cc1)N1CCC(N2CCCC2)CC1 [Example 163, {4-[1-(2,6-Dichlorobenzyl)-1,2,3,4-tetrahydropyrido[2,3-b]pyrazin-7-yl]phenyl}-(4-(pyrrolidin-1-yl)piperidin-1-yl)methanone]
< 100 nM | 251 to 500 nM | 1000 to 10000 nM | 0 to 25% | 0 to 25% |  | 26 to 50% | 26 to 50% |  |  | CC(c1c(F)ccc(F)c1Cl)N1CCNc2ncc(-c3ccc(N4CCN(C)CC4)nc3)cc21 (centres unmarked) [Example 177, 1-[1-(2-Chloro-3,6-difluorophenyl)ethyl]-7-[6-(4-methylpiperazin-1-yl)pyridin-3-yl]-1,2,3,4-tetrahydropyrido[2,3-b]pyrazine]
 |  |  |  |  |  | 51 to 75% | 76 to 100% | 0 to 25% | 0 to 25% | CN1CCN(c2ccc(-c3cnc4c(c3)N(Cc3c(F)ccc(F)c3Cl)CCN4)cn2)CC1 [Example 185, 1-(2-Chloro-3,6-difluorobenzyl)-7-[6-(4-methylpiperazin-1-yl)pyridin-3-yl]-1,2,3,4-tetrahydropyrido[2,3-b]pyrazine]
